Experimental data as given in patent US20180362531A1, “NOVEL KYNUREININE PATHWAY INHIBITORS” (STANDARD LLC, priority 2017, published 2018).

Key:
Assay type in all cases: biochemical
Human IDO1 His-Tag = biological target: T1, Human IDO1 His-Tag (Homo sapiens, UniProt P14902); experiment: IDO1 Inhibitor Screening Assay (BPS Bioscience kit, absorption at 321 nm); details: room temperature, 3 hours; N.D. = Not Detected
T1 construct: purchased BPS Bioscience
Procedure: IDO1 (indoleamine 2,3-dioxygenase-1) catalyzes the oxidative cleavage of the pyrrole ring of tryptophan to yield N′-formylkynurenine. The amount of N′-formylkynurenine product is able to be detected by the absorption at the wavelength of 321 nm. IDO1 inhibitor Screening Assay kit (BPS Bioscience) was used to test the compound. The assay was performed as described in the assay protocol.
IDO1 reaction solution (90 μl) was aliquoted into each well of a 96-well plate. 5 μl of the compound solution in 10% DMSO was added to each well. 5 μl 10% DMSO was added to the positive control and blank wells. Human IDO1 His-Tag was diluted to 40 ng/μl in 1×IDO1 Assay buffer. The reaction was initiated by adding 5 μl of diluted IDO1. In the blank well, only 1×IDO1 assay buffer was added instead. After incubating at room temperature for 3 hours, the absorption was measured at the wavelength of 321 nm using a microplate reader.
(§1) The relative activity, I, was the ratio of former to later, i.e. X/Y, expressed in percentile. The IC50 was the concentration of the compounds when X/Y equals 50 and calculated based on the dose-response curve.

Human IDO2 His-Tag = biological target: T2, Human IDO2 His-Tag (Homo sapiens, UniProt Q6ZQW0); experiment: IDO2 Inhibitor Screening Assay (BPS Bioscience kit, absorption at 321 nm); details: room temperature, 3 hours
T2 construct: purchased BPS Bioscience
T2 sequence (Q6ZQW0 1-407): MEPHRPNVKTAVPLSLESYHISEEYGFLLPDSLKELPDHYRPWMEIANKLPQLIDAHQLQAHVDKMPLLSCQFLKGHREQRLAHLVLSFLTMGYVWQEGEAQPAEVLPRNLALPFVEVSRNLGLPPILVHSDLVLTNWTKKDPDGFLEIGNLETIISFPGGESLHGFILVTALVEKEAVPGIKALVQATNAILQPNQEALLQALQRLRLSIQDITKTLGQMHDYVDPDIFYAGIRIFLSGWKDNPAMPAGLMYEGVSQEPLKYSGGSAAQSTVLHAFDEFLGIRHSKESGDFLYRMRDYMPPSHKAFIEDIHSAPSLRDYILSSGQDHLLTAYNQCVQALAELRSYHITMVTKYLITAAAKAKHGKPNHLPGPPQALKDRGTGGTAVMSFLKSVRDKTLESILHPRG
Procedure: To evaluate the selectivity of IDO inhibition for Compounds Nos. D42 and D46, an assay to measure activity against IDO2 was performed. The IDO2 Inhibitor Screening Assay kit (BPS Bioscience) was used for IDO2 test. The protocol is similar to IDO1 assay. IDO2 reaction solution (90 μl) was aliquoted into each well of a 96-well plate. 5 μl of compound solution in 10% DMSO was added to each well. 5 μl 10% DMSO was added to the positive control and blank wells. Human IDO2 His-Tag was diluted in 1×IDO2 Assay buffer at 400 ng/μl. The reaction was initiated by adding 5 μl diluted IDO2. 1×IDO2 assay buffer to the blank well. After incubating at room temperature for 3 hours, the absorption was measured at the wavelength of 321 nm. The IC50 was calculated as described for IDO2.
as §1, with “The test compound inhibition was measured as X-fold. The control solution (DMSO) was measured as Y-fold. The relative” for “The relative”

Human TDO His-Tag = biological target: T3, Human TDO His-Tag (Homo sapiens, UniProt P48775); experiment: TDO Inhibition Screening Assay (BPS Bioscience kit, absorption at 321 nm); details: room temperature, 1.5 hours
T3 construct: purchased BPS Bioscience
T3 sequence (P48775 whole entry): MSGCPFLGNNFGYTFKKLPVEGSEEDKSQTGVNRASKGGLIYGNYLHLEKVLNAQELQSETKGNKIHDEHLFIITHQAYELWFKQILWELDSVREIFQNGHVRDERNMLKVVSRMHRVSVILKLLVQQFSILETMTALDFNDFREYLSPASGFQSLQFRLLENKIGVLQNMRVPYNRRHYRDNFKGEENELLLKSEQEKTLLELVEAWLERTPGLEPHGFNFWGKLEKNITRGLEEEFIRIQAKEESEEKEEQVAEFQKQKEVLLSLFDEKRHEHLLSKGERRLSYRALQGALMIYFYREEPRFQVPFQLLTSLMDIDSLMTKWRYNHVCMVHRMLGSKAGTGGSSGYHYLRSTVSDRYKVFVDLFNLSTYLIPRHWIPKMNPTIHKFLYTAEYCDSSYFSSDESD
Procedure: The TDO inhibitor Screening Assay kit (BPS Bioscience) was used to test for TDO inhibition by Compound Nos. D42 and D46. The protocol is similar to IDO1 assay. TDO reaction solution (90 μl) was aliquoted into each well of a 96-well plate. 5 μl of compound solution in 10% DMSO was added to each well. 5 μl 10% DMSO was added to the positive control and blank wells. Human TDO His-Tag was diluted in 1×TDO Assay buffer at 50 ng/μl. The reaction was initiated by adding 5 μl diluted TDO. 1×TDO assay buffer was added to the blank well. After incubating at room temperature for 1.5 hours, the absorption was measured at the wavelength of 321 nm. The IC50 was calculated as described for TDO inhibition. The relative activity and IC50 was calculated as described above in Examples 3 and 4.

T1 sequence (P14902 whole entry): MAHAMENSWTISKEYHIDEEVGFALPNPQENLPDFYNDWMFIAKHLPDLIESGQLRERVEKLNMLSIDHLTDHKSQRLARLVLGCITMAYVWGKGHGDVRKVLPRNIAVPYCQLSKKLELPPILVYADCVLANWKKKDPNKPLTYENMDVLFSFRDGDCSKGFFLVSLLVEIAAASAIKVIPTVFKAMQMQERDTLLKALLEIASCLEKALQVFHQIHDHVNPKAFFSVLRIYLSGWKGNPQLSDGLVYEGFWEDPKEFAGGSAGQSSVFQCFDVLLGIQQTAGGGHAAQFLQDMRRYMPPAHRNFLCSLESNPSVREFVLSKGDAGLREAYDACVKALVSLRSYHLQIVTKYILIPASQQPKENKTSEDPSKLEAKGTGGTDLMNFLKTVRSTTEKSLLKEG

IC50 (Human IDO1 His-Tag) [nM] | IDO2 inhibition (Human IDO2 His-Tag) | IC50 (Human TDO His-Tag) [µM] | Structure (SMILES)
61 | No IDO2 inhibition was detected | 0.064 | N#Cc1ccc(NC(=O)NCC2c3ccccc3-c3cncn32)cc1 (stereo not drawn) [D42, 1-((5H-imidazo[5,1-a]isoindol-5-yl)methyl)-3-(4-cyanophenyl)urea]
325 | No IDO2 inhibition was detected | 0.064 | N#Cc1ccc(NC(=O)NCCC2c3ccccc3-c3cncn32)cc1 (stereo not drawn) [D46, 1-(2-(5H-imidazo[5,1-a]isoindol-5-yl)ethyl)-3-(4-cyanophenyl)urea]
